Measured values taken from PubChem BioAssay (NCI).
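Following 48 hours of exposure in 96-well plates, responses at five concentrations were used to interpolate endpoints linearly. GI50: concentration for 50% inhibition of growth. TGI: total growth inhibition.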

Assays:
Test in all cases: NCI tumour cell line growth inhibition, 48 h
RXF 393 renal = test system: RXF 393 renal
HOP-92 NSCLC = test system: HOP-92 NSCLC
MDA-MB-468 breast = test system: MDA-MB-468 breast
SF-295 CNS = test system: SF-295 CNS
A498 renal = test system: A498 renal
LOX IMVI melanoma = test system: LOX IMVI melanoma
SK-MEL-2 melanoma = test system: SK-MEL-2 melanoma
SK-MEL-5 melanoma = test system: SK-MEL-5 melanoma
MDA-MB-435 = test system: MDA-MB-435
EKVX NSCLC = test system: EKVX NSCLC
786-0 renal = test system: 786-0 renal
HCT-15 colon = test system: HCT-15 colon
K-562 leukemia = test system: K-562 leukemia
BT-549 breast = test system: BT-549 breast
SW-620 colon = test system: SW-620 colon
SK-OV-3 ovarian = test system: SK-OV-3 ovarian
OVCAR-5 ovarian = test system: OVCAR-5 ovarian
HS 578T breast = test system: HS 578T breast
NCI-H522 lung = test system: NCI-H522 lung
UACC-257 melanoma = test system: UACC-257 melanoma
MDA-MB-231 breast = test system: MDA-MB-231 breast
COLO 205 colon = test system: COLO 205 colon
SNB-19 CNS = test system: SNB-19 CNS
NCI-H226 lung = test system: NCI-H226 lung
NCI-H460 lung = test system: NCI-H460 lung
HCC-2998 colon = test system: HCC-2998 colon
SF-539 CNS = test system: SF-539 CNS
PC-3 prostate = test system: PC-3 prostate
SR leukemia = test system: SR leukemia
MCF7 breast = test system: MCF7 breast
SN12C renal = test system: SN12C renal
U251 CNS = test system: U251 CNS
KM12 colon = test system: KM12 colon
MALME-3M melanoma = test system: MALME-3M melanoma
SF-268 CNS = test system: SF-268 CNS
CCRF-CEM leukemia = test system: CCRF-CEM leukemia
RPMI-8226 leukemia = test system: RPMI-8226 leukemia
CAKI-1 renal = test system: CAKI-1 renal
HT29 colon = test system: HT29 colon
UACC-62 melanoma = test system: UACC-62 melanoma
NCI-H23 lung = test system: NCI-H23 lung
M14 melanoma = test system: M14 melanoma
HOP-62 NSCLC = test system: HOP-62 NSCLC
T-47D breast = test system: T-47D breast
IGROV1 ovarian = test system: IGROV1 ovarian
SK-MEL-28 melanoma = test system: SK-MEL-28 melanoma
OVCAR-4 ovarian = test system: OVCAR-4 ovarian
UO-31 renal = test system: UO-31 renal
MOLT-4 leukemia = test system: MOLT-4 leukemia
OVCAR-3 ovarian = test system: OVCAR-3 ovarian
SNB-75 CNS = test system: SNB-75 CNS
HCT-116 colon = test system: HCT-116 colon
DU-145 prostate = test system: DU-145 prostate
A549 NSCLC = test system: A549 NSCLC
ACHN renal = test system: ACHN renal
TK-10 renal = test system: TK-10 renal

SMILES: CN(C)c1ccnc(CNCCSC2(c3ccccc3)c3ccccc3C=Cc3ccccc32)c1
- GI50 (RXF 393 renal): 1250 nM
- TGI (RXF 393 renal): 4500 nM
- GI50 (HOP-92 NSCLC): 1250 nM
- TGI (HOP-92 NSCLC): 5180 nM
- GI50 (MDA-MB-468 breast): 460 nM
- TGI (MDA-MB-468 breast): 2060 nM
- GI50 (SF-295 CNS): 1800 nM
- TGI (SF-295 CNS): 5180 nM
- GI50 (A498 renal): 9970 nM
- TGI (A498 renal): 25300 nM
- GI50 (LOX IMVI melanoma): 1430 nM
- TGI (LOX IMVI melanoma): 2770 nM
- GI50 (SK-MEL-2 melanoma): 2200 nM
- TGI (SK-MEL-2 melanoma): 4890 nM
- GI50 (SK-MEL-5 melanoma): 1460 nM
- TGI (SK-MEL-5 melanoma): 2780 nM
- GI50 (MDA-MB-435): 215 nM
- TGI (MDA-MB-435): 495 nM
- GI50 (EKVX NSCLC): 2440 nM
- TGI (EKVX NSCLC): 13900 nM
- GI50 (786-0 renal): 1620 nM
- TGI (786-0 renal): 3980 nM
- GI50 (HCT-15 colon): 520 nM
- TGI (HCT-15 colon): 11400 nM
- GI50 (K-562 leukemia): 380 nM
- TGI (K-562 leukemia): > 100000 nM
- GI50 (BT-549 breast): 1910 nM
- TGI (BT-549 breast): 5000 nM
- GI50 (SW-620 colon): 579 nM
- TGI (SW-620 colon): 2260 nM
- GI50 (SK-OV-3 ovarian): 2800 nM
- TGI (SK-OV-3 ovarian): 9040 nM
- GI50 (OVCAR-5 ovarian): 2450 nM
- TGI (OVCAR-5 ovarian): 7640 nM
- GI50 (HS 578T breast): 1990 nM
- TGI (HS 578T breast): 5920 nM
- GI50 (NCI-H522 lung): 1400 nM
- TGI (NCI-H522 lung): 3360 nM
- GI50 (UACC-257 melanoma): 1790 nM
- TGI (UACC-257 melanoma): 4180 nM
- GI50 (MDA-MB-231 breast): 1460 nM
- TGI (MDA-MB-231 breast): 3630 nM
- GI50 (COLO 205 colon): 1610 nM
- TGI (COLO 205 colon): 3110 nM
- GI50 (SNB-19 CNS): 3750 nM
- TGI (SNB-19 CNS): 15200 nM
- GI50 (NCI-H226 lung): 2460 nM
- TGI (NCI-H226 lung): 8800 nM
- GI50 (NCI-H460 lung): 1610 nM
- TGI (NCI-H460 lung): 3130 nM
- GI50 (HCC-2998 colon): 1410 nM
- TGI (HCC-2998 colon): 2980 nM
- GI50 (SF-539 CNS): 1470 nM
- TGI (SF-539 CNS): 2830 nM
- GI50 (PC-3 prostate): 1310 nM
- TGI (PC-3 prostate): 6910 nM
- GI50 (SR leukemia): 798 nM
- TGI (SR leukemia): 5040 nM
- GI50 (MCF7 breast): 419 nM
- TGI (MCF7 breast): 2390 nM
- GI50 (SN12C renal): 1390 nM
- TGI (SN12C renal): 6530 nM
- GI50 (U251 CNS): 380 nM
- TGI (U251 CNS): 1600 nM
- GI50 (KM12 colon): 1440 nM
- TGI (KM12 colon): 3240 nM
- GI50 (MALME-3M melanoma): 1540 nM
- TGI (MALME-3M melanoma): 3160 nM
- GI50 (SF-268 CNS): 1860 nM
- TGI (SF-268 CNS): 7620 nM
- GI50 (CCRF-CEM leukemia): 681 nM
- TGI (CCRF-CEM leukemia): 11900 nM
- GI50 (RPMI-8226 leukemia): 1620 nM
- TGI (RPMI-8226 leukemia): 5440 nM
- GI50 (CAKI-1 renal): 2290 nM
- TGI (CAKI-1 renal): 12300 nM
- GI50 (HT29 colon): 1690 nM
- TGI (HT29 colon): 3920 nM
- GI50 (UACC-62 melanoma): 2170 nM
- TGI (UACC-62 melanoma): 5390 nM
- GI50 (NCI-H23 lung): 2570 nM
- TGI (NCI-H23 lung): 7460 nM
- GI50 (M14 melanoma): 710 nM
- TGI (M14 melanoma): 2500 nM
- GI50 (HOP-62 NSCLC): 2160 nM
- TGI (HOP-62 NSCLC): 8100 nM
- GI50 (T-47D breast): 2480 nM
- TGI (T-47D breast): 9260 nM
- GI50 (IGROV1 ovarian): 2940 nM
- TGI (IGROV1 ovarian): 17100 nM
- GI50 (SK-MEL-28 melanoma): 2020 nM
- TGI (SK-MEL-28 melanoma): 4110 nM
- GI50 (OVCAR-4 ovarian): 3560 nM
- TGI (OVCAR-4 ovarian): 16000 nM
- GI50 (UO-31 renal): 2160 nM
- TGI (UO-31 renal): 11400 nM
- GI50 (MOLT-4 leukemia): 2490 nM
- TGI (MOLT-4 leukemia): 12400 nM
- GI50 (OVCAR-3 ovarian): 1730 nM
- TGI (OVCAR-3 ovarian): 4870 nM
- GI50 (SNB-75 CNS): 1560 nM
- TGI (SNB-75 CNS): 6290 nM
- GI50 (HCT-116 colon): 526 nM
- TGI (HCT-116 colon): 2100 nM
- GI50 (DU-145 prostate): 2850 nM
- TGI (DU-145 prostate): 8110 nM
- GI50 (A549 NSCLC): 556 nM
- TGI (A549 NSCLC): 5830 nM
- GI50 (ACHN renal): 1440 nM
- TGI (ACHN renal): 12200 nM
- GI50 (TK-10 renal): 3090 nM
- TGI (TK-10 renal): 14800 nM
